From ChEMBL document CHEMBL1201862, “PubChem BioAssay data set” (2004)
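48-hour exposure; five concentrations; linearly interpolated endpoints. GI50 is the concentration that inhibits growth by half.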 Active and inactive are the calls of the source. Cut-off read from the data, not from the text of the source: active = GI50 up to about 1.1 µM and inactive = higher.

Tests used:
Test in all cases: NCI-60 cell line screen, 48 h
HOP-92 = tested on: HOP-92
LOX IMVI = tested on: LOX IMVI
SR = tested on: SR
NCI-H460 = tested on: NCI-H460
SW-620 = tested on: SW-620
OVCAR-5 = tested on: OVCAR-5
SK-MEL-2 = tested on: SK-MEL-2
HT-29 = tested on: HT-29
TK-10 = tested on: TK-10
NCI-H522 = tested on: NCI-H522
SK-OV-3 = tested on: SK-OV-3
Malme-3M = tested on: Malme-3M
KM12 = tested on: KM12
NCI-H226 = tested on: NCI-H226
UACC-62 = tested on: UACC-62
OVCAR-4 = tested on: OVCAR-4
Hs-578T = tested on: Hs-578T
PC-3 = tested on: PC-3
HOP-62 = tested on: HOP-62
MCF7 = tested on: MCF7

Measured: GI50

CC12Oc3ccc4ccccc4c3C1c1c(ccc3ccccc13)O2 (stereo not given)
inactive: HOP-92 17.1 µM | LOX IMVI > 100 µM | SR > 100 µM | NCI-H460 > 100 µM | SW-620 > 100 µM | OVCAR-5 > 100 µM | SK-MEL-2 > 100 µM | HT-29 > 100 µM | TK-10 > 100 µM | NCI-H522 > 100 µM | SK-OV-3 > 100 µM | Malme-3M > 100 µM | KM12 > 100 µM | NCI-H226 > 100 µM | UACC-62 > 100 µM | OVCAR-4 35.9 µM

COC(=O)C(=O)C(C(=O)C(=O)Nc1ccc(C)cc1)c1nc2ccc(C(=O)c3ccccc3)cc2nc1O (stereo not given)
inactive: HOP-92 > 100 µM | LOX IMVI > 100 µM | NCI-H460 70.8 µM | SW-620 > 100 µM | OVCAR-5 > 100 µM | SK-MEL-2 > 100 µM | HT-29 7.83 µM | TK-10 > 100 µM | NCI-H522 30.5 µM | SK-OV-3 > 100 µM | Hs-578T 57.3 µM | PC-3 43.7 µM | Malme-3M > 100 µM | HOP-62 46.9 µM | KM12 30.4 µM | NCI-H226 95.5 µM | UACC-62 > 100 µM | OVCAR-4 49 µM

O=C(Cc1nc2ccccc2c(=O)n1-c1c(Cl)cccc1Cl)c1ccncc1
inactive: HOP-92 13.8 µM | LOX IMVI > 10 µM | SR 17.8 µM | NCI-H460 21.4 µM | SW-620 36.6 µM | SK-MEL-2 21.1 µM | HT-29 19.6 µM | TK-10 > 10 µM | NCI-H522 19.6 µM | SK-OV-3 53.1 µM | Malme-3M 24.7 µM | HOP-62 21.3 µM | KM12 15.8 µM | NCI-H226 > 10 µM | UACC-62 22.7 µM | OVCAR-4 27.5 µM

CNC(=O)c1nnn(Cc2ccccc2)c1S
inactive: NCI-H460 > 100 µM | SW-620 > 100 µM | OVCAR-5 > 100 µM | SK-MEL-2 > 100 µM | HT-29 > 100 µM | TK-10 > 100 µM | SK-OV-3 > 100 µM | PC-3 > 100 µM | HOP-62 > 100 µM | MCF7 > 100 µM | KM12 > 100 µM | NCI-H226 > 100 µM | UACC-62 > 100 µM | OVCAR-4 > 100 µM

COC(=O)C1(O)C(c2ccccc2)=NC2(C)CCCC21 (stereo not given)
inactive: HOP-92 > 100 µM | LOX IMVI > 100 µM | SR > 100 µM | NCI-H460 > 100 µM | SW-620 > 100 µM | OVCAR-5 > 100 µM | SK-MEL-2 > 100 µM | HT-29 > 100 µM | TK-10 > 100 µM | NCI-H522 > 100 µM | SK-OV-3 > 100 µM | Hs-578T > 100 µM | PC-3 > 100 µM | Malme-3M > 100 µM | HOP-62 > 100 µM | KM12 > 100 µM | NCI-H226 > 100 µM | UACC-62 > 100 µM | OVCAR-4 > 100 µM

COc1ccc(C23OCC(Cc4cc(OC)c(OC)cc42)C3CO)cc1OC (stereo not given)
inactive: LOX IMVI > 100 µM | SR 29.8 µM | NCI-H460 > 100 µM | SW-620 > 100 µM | OVCAR-5 > 100 µM | SK-MEL-2 > 100 µM | TK-10 > 100 µM | NCI-H522 > 100 µM | SK-OV-3 > 100 µM | PC-3 > 100 µM | Malme-3M > 100 µM | HOP-62 > 100 µM | MCF7 > 100 µM | KM12 > 100 µM | NCI-H226 > 100 µM | UACC-62 > 100 µM | OVCAR-4 > 100 µM

COC(=O)c1c(CC(=O)OC(C)C)cc2n(c1=O)Cc1c-2nc2ccccc2c1OC
inactive: HOP-92 45.6 µM | LOX IMVI > 100 µM | SR 33.8 µM | NCI-H460 > 100 µM | SW-620 > 100 µM | OVCAR-5 > 100 µM | SK-MEL-2 > 100 µM | HT-29 > 100 µM | TK-10 > 100 µM | NCI-H522 > 100 µM | SK-OV-3 > 100 µM | Malme-3M > 100 µM | HOP-62 > 100 µM | NCI-H226 99.1 µM | UACC-62 > 100 µM | OVCAR-4 > 100 µM

O=C1/C(=C/c2cccc(Oc3ccccc3)c2)N=C(c2ccccc2)N1c1nc2ccc(Sc3ccccc3)cc2[nH]1
inactive: HOP-92 58.7 µM | LOX IMVI 30.9 µM | NCI-H460 23 µM | SW-620 29.4 µM | OVCAR-5 57.8 µM | SK-MEL-2 17.3 µM | HT-29 23.5 µM | TK-10 25.2 µM | NCI-H522 25.2 µM | SK-OV-3 25.6 µM | Hs-578T 41.3 µM | PC-3 29.9 µM | Malme-3M 67.8 µM | HOP-62 28.4 µM | MCF7 27.7 µM | KM12 29.6 µM | UACC-62 23.2 µM | OVCAR-4 47.3 µM

CCOC(=O)/C(=C\c1ccc[nH]1)C(=O)c1ccccc1
inactive: HOP-92 22.6 µM | LOX IMVI 91.2 µM | SR 25.8 µM | NCI-H460 > 100 µM | SW-620 52.7 µM | OVCAR-5 > 100 µM | SK-MEL-2 89.9 µM | HT-29 > 100 µM | TK-10 > 100 µM | NCI-H522 > 100 µM | SK-OV-3 > 100 µM | Malme-3M > 100 µM | HOP-62 > 100 µM | KM12 65.9 µM | NCI-H226 > 100 µM | UACC-62 67.6 µM | OVCAR-4 > 100 µM

Fc1ccc(Nc2nnc(-c3ccccn3)s2)cc1
inactive: HOP-92 > 100 µM | LOX IMVI > 100 µM | NCI-H460 > 100 µM | SW-620 > 100 µM | OVCAR-5 > 100 µM | SK-MEL-2 > 100 µM | HT-29 > 100 µM | TK-10 > 100 µM | NCI-H522 > 100 µM | SK-OV-3 > 100 µM | Hs-578T > 100 µM | PC-3 > 100 µM | Malme-3M > 100 µM | HOP-62 > 100 µM | MCF7 3.47 µM | KM12 > 100 µM | UACC-62 > 100 µM | OVCAR-4 > 100 µM

O=C(CCCCCCCCCCc1ccccc1)c1c(O)cccc1O
inactive: HOP-92 23.5 µM | LOX IMVI 27.2 µM | SR 25.2 µM | NCI-H460 20.8 µM | SW-620 19.5 µM | OVCAR-5 21.2 µM | SK-MEL-2 15.8 µM | HT-29 33 µM | TK-10 39 µM | NCI-H522 21.4 µM | SK-OV-3 44.8 µM | Malme-3M 17.9 µM | HOP-62 20.8 µM | KM12 18.4 µM | NCI-H226 21.2 µM | UACC-62 20.7 µM | OVCAR-4 25.3 µM

COc1cc(/C=C2/SC(c3ccccc3)N(c3ccc(NC(C)=O)cc3)C2=O)cc(OC)c1OC (stereo not given)
inactive: HOP-92 37.3 µM | LOX IMVI 72.1 µM | SR 30.8 µM | NCI-H460 > 100 µM | SW-620 > 100 µM | OVCAR-5 > 100 µM | SK-MEL-2 > 100 µM | HT-29 > 100 µM | TK-10 > 100 µM | NCI-H522 28.1 µM | SK-OV-3 > 100 µM | Hs-578T 35.5 µM | Malme-3M 54.1 µM | HOP-62 > 100 µM | MCF7 76.9 µM | KM12 91.4 µM | NCI-H226 > 100 µM | UACC-62 > 100 µM | OVCAR-4 > 100 µM

CCOC(=O)Cc1cc(=O)oc2cc(O)ccc12
inactive: LOX IMVI > 100 µM | SR > 100 µM | NCI-H460 > 100 µM | SW-620 > 100 µM | OVCAR-5 59.4 µM | SK-MEL-2 > 100 µM | HT-29 > 100 µM | TK-10 > 100 µM | NCI-H522 > 100 µM | SK-OV-3 > 100 µM | Hs-578T > 100 µM | PC-3 > 100 µM | Malme-3M > 100 µM | KM12 > 100 µM | NCI-H226 > 100 µM | UACC-62 > 100 µM

COc1ccc(C2[C@H]3C(=O)N(c4ccc(Cc5ccc(N6C(=O)[C@@H]7ON(c8ccccc8)C(c8ccc(OC)cc8)[C@@H]7C6=O)cc5)cc4)C(=O)[C@H]3ON2c2ccccc2)cc1 (stereo not given in full)
inactive: HOP-92 49.2 µM | LOX IMVI > 100 µM | SR > 100 µM | NCI-H460 > 100 µM | SW-620 > 100 µM | OVCAR-5 > 100 µM | SK-MEL-2 > 100 µM | HT-29 > 100 µM | TK-10 > 100 µM | NCI-H522 > 100 µM | SK-OV-3 > 100 µM | Malme-3M 87.5 µM | HOP-62 > 100 µM | KM12 > 100 µM | NCI-H226 > 100 µM | UACC-62 > 100 µM | OVCAR-4 > 100 µM

CCc1nnc(CC)n1-n1c(Cc2ccccc2)n[nH]c1=O
inactive: HOP-92 > 100 µM | LOX IMVI > 100 µM | SR > 100 µM | SW-620 > 100 µM | OVCAR-5 > 100 µM | SK-MEL-2 > 100 µM | HT-29 > 100 µM | TK-10 > 100 µM | NCI-H522 > 100 µM | SK-OV-3 > 100 µM | PC-3 > 100 µM | HOP-62 > 100 µM | MCF7 > 100 µM | KM12 > 100 µM | UACC-62 > 100 µM | OVCAR-4 > 100 µM

COc1cc2c(c(OC)c1)/C(=C/Sc1ccccc1)C(=O)N(C(C)(C)C)C2
inactive: HOP-92 1.41 µM | LOX IMVI 18.8 µM | SR 19.8 µM | SW-620 38 µM | OVCAR-5 52.6 µM | SK-MEL-2 20.2 µM | HT-29 22.9 µM | TK-10 54.6 µM | SK-OV-3 14.2 µM | PC-3 22.4 µM | HOP-62 27.5 µM | MCF7 29.8 µM | KM12 24.3 µM | NCI-H226 51.6 µM | UACC-62 24.3 µM | OVCAR-4 33.1 µM
